≈ marks a conversion by molar mass, not a printed value. Where a name gives a salt, the structure may show the parent alone. Read-outs that look alike come from different tables or passages of the source.
Experiments:
Aqueous solubility = type: physicochemical; conditions: water
Method: (§1) Table 1 represents the aqueous solubility and the anti-tumor activity of these compounds. The anti-tumor testing was carried out in CDF-1 mice in which were implanted L-1210 lymphoid leukemia, and the drug is delivered intraperitoneally on a schedule of QD4X2.

L-1210 lymphoid leukemia = assay: Anti-tumor activity in CDF-1 mice implanted with L-1210 lymphoid leukemia (IP/IP, QD4 × 2); type: in vivo; conditions: Mus musculus, read-out: T/C; for response vs control in vivo at 30 mg/kg: 30 mg/Kg per injection; for response vs control in vivo at 50 mg/kg: 50 mg/Kg per injection
Method: as §1

[1] = cited from earlier work
[2] = preclinical, beagle and rhesus monkey; cited from earlier work
leukemia L-1210 = conditions: mice; cited from earlier work
Walker 256 tumor = conditions: rats; cited from earlier work
[3] = subsequent biological evaluation in earlier reports; cited from earlier work
[4] = In vitro human plasma hydrolysis of prodrugs; type: in vitro ADME; conditions: initial drug concentration 50 mcg/ml, read-out: t1/2 of hydrolysis in human plasma
From the text: (§2) The data are shown to reflect the relative hydrolysis rates as measured by t1/2, the time required for the concentration of the drug to become one half of the starting concentration. Freshly obtained samples of human and murine plasma were used in these studies.
(§3) ^(a) Initial drug concentration (50 mcg/ml)

[5] = In vitro murine plasma hydrolysis of prodrugs; type: in vitro ADME; conditions: mouse, initial drug concentration 50 mcg/ml, read-out: t1/2 of hydrolysis in murine plasma
From the text: as §2, §3

[6] = animal models; Wani et al. 1980; cited from earlier work
[7] = early clinical studies; cited from earlier work

| SMILES | solubility (Aqueous solubility; read-out: Aqueous solubility) | half-life [4] | half-life [5] | response vs control in vivo at 30 mg/kg (L-1210 lymphoid leukemia; L1210, IP/IP, QD4 × 2) | other results |
| --- | --- | --- | --- | --- | --- |
| CC[C@@]1(O)C(=O)OCc2c1cc1n(c2=O)Cc2cc3ccccc3nc2-1 [Camptothecin] |  |  |  |  | solubility (Aqueous solubility): 50 µg/mL (≈ 144 µM); response vs control in vivo at 8 mg/kg (L-1210 lymphoid leukemia; L1210, ip): 197%; Solubility in aqueous vehicles ([1]; aqueous vehicles suitable for parenteral administration): practically insoluble; Eosinophilia and bone marrow depression [2]: moderate eosinophilia and bone marrow depression; Hepatotoxicity [2]: Minimal hepatotoxicity; Major dose-limiting toxic effect [2]: Hemorrhagic enterocolitis; Carcinostatic activity, leukemia L-1210 (leukemia L-1210): inhibitor activity; Carcinostatic activity, Walker 256 tumor (Walker 256 tumor): inhibitor activity; Toxicity [3]: highly toxic |
| CC[C@@]1(OC(=O)CN)C(=O)OCc2c1cc1n(c2=O)Cc2cc3ccccc3nc2-1 [Formula 7, Camptothecin-20-O-glycinate.HCl] | 6000 µg/mL | 15 min | 36 min |  | response vs control in vivo at 15 mg/kg (L-1210 lymphoid leukemia; L1210, 15 mg/Kg per injection, IP/IP, QD4 × 2): 162% |
| CC[C@@]1(OC(=O)CNC)C(=O)OCc2c1cc1n(c2=O)Cc2cc3ccccc3nc2-1 [Formula 8] | 4000 µg/mL | 13 min | 28 min | 191% |  |
| CCNCC(=O)O[C@]1(CC)C(=O)OCc2c1cc1n(c2=O)Cc2cc3ccccc3nc2-1 [Formula 9] | 8000 µg/mL | 18 min | 40 min | 170% |  |
| CCN(CC)CC(=O)O[C@]1(CC)C(=O)OCc2c1cc1n(c2=O)Cc2cc3ccccc3nc2-1 [Formula 10, Camptothecin-20-O-(N,N-diethyl)glycinate.HCl] | 5000 µg/mL | 45 min |  | 256% |  |
| CC[C@@]1(OC(=O)C(N)CCCCCN)C(=O)OCc2c1cc1n(c2=O)Cc2cc3ccccc3nc2-1 (some centres unmarked) [Formula 12] | 15000 µg/mL | 20 min | 48 min |  | response vs control in vivo at 50 mg/kg (L-1210 lymphoid leukemia; L1210, IP/IP, QD4 × 2): 253% |
| CC[C@@]1(OC(=O)C(N)CCC(=O)O)C(=O)OCc2c1cc1n(c2=O)Cc2cc3ccccc3nc2-1 (some centres unmarked) [Formula 13] | 6000 µg/mL | 18 min | 35 min |  | response vs control in vivo at 50 mg/kg (L-1210 lymphoid leukemia; L1210, IP/IP, QD4 × 2): 154% |
| CC[C@@]1(OC(=O)CCC(=O)O)C(=O)OCc2c1cc1n(c2=O)Cc2cc3ccccc3nc2-1 [Formula 14, Camptothecin-20-O-hemisuccinate sodium salt] | 13000 µg/mL | 16 min | 40 min |  | response vs control in vivo at 47 mg/kg (L-1210 lymphoid leukemia; L1210, 47 mg/Kg per injection, IP/IP, QD4 × 2): 200% |
| CC[C@@]1(OP(=O)(O)O)C(=O)OCc2c1cc1n(c2=O)Cc2cc3ccccc3nc2-1 [Formula 15, Camptothecin-20-phosphate sodium salt] | 8000 µg/mL | 20 min | 27 min |  | response vs control in vivo at 44 mg/kg (L-1210 lymphoid leukemia; L1210, 44 mg/Kg per injection, IP/IP, QD4 × 2): 192% |
| CC[C@@](O)(C(=O)O)c1cc2n(c(=O)c1CO)Cc1cc3ccccc3nc1-2 [Sodium camptothecin] |  |  |  |  | Solubility in water ([1]; in water): > 50000 µg/mL; Potency relative to parent camptothecin [6]: 10-20%; Clinical outcome [7]: disappointing; Clinical toxicity [7]: unexpected toxicity that precluded achievement of therapeutically useful doses |

Reference: patent US4943579A, “Water soluble prodrugs of camptothecin” (priority 1987, dated 1990)
